Measured values taken from ChEMBL document CHEMBL1157334, “Neuroprotective diterpenes from the fruiting body of Antrodia camphorata” (2006).

Experiments:
[1] = Neuroprotective effect against amyloid beta(25 to 35)-induced cell death in Harlan Sprague-Dawley rat pups cortical neurons assessed as cell death at 20 uM treated 2 hrs before amyloid beta(25 to 35) treatment after 40 hrs by MTT assay; conditions: for cell death at 20 µM: Rattus norvegicus, Harlan Sprague-Dawley, Cortical neurone
[2] = Neuroprotective effect against amyloid beta(25 to 35)-induced cell death in Harlan Sprague-Dawley rat pups cortical neurons assessed as cell death at 10 uM treated 2 hrs before amyloid beta(25 to 35) treatment after 40 hrs by MTT assay

C=C1CC[C@@H]2[C@](C)(CO)[C@H](O)CC[C@@]2(C)[C@@H]1/C=C/C1=CCOC1=O
cell death at 20 µM [1]: 29.5%

CC(=O)N[C@@H](CC(=O)O)C(=O)N[C@@H](CCC(=O)O)C(=O)N[C@H](C(=O)N[C@H](C=O)CC(=O)O)C(C)C
cell death at 20 µM [1]: 23.1%

C=C1CC[C@H]2[C@@](C)(CO)CCC[C@]2(C)[C@H]1CCC1CCOC1=O (some centres not stated)
cell death at 20 µM [1]: 30.8%

C=C1CC[C@H]2[C@@](C)(CO)CCC[C@]2(C)[C@H]1CCC1=CCOC1=O
cell death at 20 µM [1]: 32.6%

C=C1CC[C@@H]2[C@](C)(CC[C@H](O)[C@]2(C)CO)[C@H]1/C=C/C1CCOC1=O (stereo in doubt; 2)
cell death [2]: 29.5%
cell death [1]: 26.3%

C=C1CC[C@@H]2[C@](C)(CC[C@H](O)[C@]2(C)CO)[C@H]1/C=C/C1CCOC1=O (stereo in doubt; 3)
cell death at 20 µM [1]: 29.3%
